Results reported in publication PMC8110578, “Phenylethynylbenzyl-modified biguanides inhibit pancreatic cancer tumor growth” (Scientific Reports, 2021).
Where two headings read alike, the source gives them in different places.

Tests used:
[1] = HPTS assay, internal pH of EYPC liposomes; details: 5 mM (50 mol% relative to 10 mM EYPC), NaOH pulse at 300 s
Description: (§1) Figure 2 (A) Partition of compounds in an U-tube experiment. Concentration of biguanide on the trans-side of the U-tube at 48 h and 72 h at 25 °C, after addition of 250 µM of biguanide on the cis-side. (B) Variation in the internal pH of HPTS-containing EYPC liposomes. Intravesicular solution: 1 mM HPTS, 10 mM HEPES, and 100 mM NaCl, adjusted to pH = 7.4, and extravesicular solution: 10 mM HEPES and 100 mM NaCl, adjusted to pH = 7.4. Biguanidiums were injected after 50 s at 5 mM (50 mol% relative to the 10 mM EYPC concentration), a NaOH pulse was induced at 300 s, and the liposomes were lysed with Triton-X at 550 s. Each curve is the average of three independent measurements. (C) Fluorescence of safranin O in the EYPC liposomes. Biguanidium salts were injected at 5 mM (50 mol% relative to the 10 mM EYPC concentration) at 50 s. Each curve is the average of three independent measurements. […] Mitochondrial isolation was performed according to the previously reported protocol.

[2] = Safranin O assay, membrane potential of EYPC liposomes; details: 5 mM (50 mol% relative to 10 mM EYPC)
Description: as §1

KP4 cells [3] = experiment: Growth assay (crystal violet), KP4 cells; type: cell-based, human; details: for IC50: KP4 cells
Description: All chemicals were purchased from Aldrich Chemicals in their highest purity and used without further purification. Deuterated dimethylsulfoxide (DMSO-d^6) and deuterated chloroform (CDCl3) were purchased from CDN Isotopes. NMR spectra were recorded on Bruker advance 400 and 100 spectrometers. Coupling constants are given in hertz (Hz) and chemical shifts are given in parts per million (ppm, δ) measured relative to the residual solvent (the multiplicity of the signals are given as s: singlet, d: doublet, t: triplet, and m: multiplet). High-resolution mass spectra (HRMS) were recorded on a TSQ Quantum Ultra (Thermo Scientific) triple quadrupole with accurate mass option instrument (Université de Montréal Mass Spectrometry Facility). MS experiences were performed using an UltrafleXtreme MALDI TOF/TOF mass spectrometer equipped with a SmartBeam II Nd:Yag/355 nm laser operating at 1 kHz and providing a laser focus down to 20 μm in diameter (Bruker Daltonics, Billerica, MA). The data acquisition for MS was performed in positive ion mode using the linear geometry with flexControl 3.4 (Bruker Daltonics, Billerica, MA). Acceleration voltage was set to + 25 kV and all other instrumental parameters (delayed extraction parameters, source voltages, detector gain, laser energy, etc.) were optimized for maximum S/N for the drug compounds. L-α-Phosphatidylcholine was purchased from Avanti Polar Lipids. Transport and depolarization studies as well as absorbance measurements were performed on a Varian Cary Eclipse fluorescence spectrophotometer. The hemolysis assays were performed on a Fluostar Optima plate reader. Single crystals of C18H18F3N5O3S were obtained from chloroform. A suitable crystal was selected and analysed on a Bruker Venture Metaljet diffractometer. Crystal violet retention assay was used for cell growth assays and IC50 were determined using Prism (GraphPad). NAD/NADH quantitation colorimetric kit (#K337-100) from Biovision was used according to manufacturer’s instructions. ECAR (extracellular acidification rate) and OCR of KP4 cells (oxygen consumption rate) were measured on a Seahorse XF-24 (Agilent).
Experimental. KP4 (Riken RCB1005) and PSN1 (ATCC: CRM-CRL-3211), were cultured in Dulbecco's modified Eagle's medium (DMEM) (Wisent, St-Bruno, QC) supplemented with 10 % of fetal bovine serum (FBS) (Wisent). HPNE hTERT (ATCC: CRL1423) were cultured in a mix of 75% DMEM without glucose (Sigma Cat#. D-5030) with additional 2 mM L-glutamine and 1.5 g/L sodium bicarbonate, 25% Medium M3 Base (Incell Corp. Cat# M300F- 500), fetal bovine serum 5% (wisent 10 ng/ml human recombinant EGF (Sigma-Aldrich), 5.5 mM D-glucose (Sigma-Aldrich), 750 ng/ml puromycin (Sigma-Aldrich). For dose-response assays, cells were seeded in 96 well plates (company). After 24 h, treatments were applied and cells were grown for 3 more days. Crystal violet retention assay used for cell growth assays were described previously^2. The data is expressed as relative absorbance of crystal violet extracted from the cells and diluted in 10 % acetic acid. IC50 were determined using Prism (GraphPad). Tumor spheres were grew according to Ferbeyre et al^3.

AH375 cells = experiment: Tumor sphere formation, AH375 cells; type: cell-based, mouse; details: 24 h treatment
KP4 cells [4] = experiment: Mitochondrial morphology by anti-TOMM20 immunofluorescence, KP4 cells; type: cell-based, human; details: 24 h, 1b 15µM, metformin 5mM
Description: The action of biguanides in mitochondria can lead to morphological alterations that include disorganisation of the cristae. […].  Figure 4 Effects of biguanides on mitochondrial morphology. (A) Mitochondrial morphology in KP4 cells 24 h following the indicated treatments as visualised by anti-TOMM20 immunofluorescence. Scale bar = […]. […] The data represents the mean of 2 biological replicates and for each replicate three counts of 50 cells were done. n = 300 cells per treatment. Data was analyzed with one way ANOVA followed by Tukey HSD test.
Experimental. KP-4 cells were seeded at 50% confluency on slides in 6-well plates. […] After 24h of treatment, cells were washed twice with PBS1X then were fixed during 10 minutes at 4°C with 4% paraformaldehyde. Cells were washed again three times with PBS1X then permeabilized during 5 min in PBS1X, 2%BSA, 0,2%Triton X-100. Slides were washed three times 10 minutes with 1XPBS, 2%BSA, then incubated overnight with primary antibody anti-TOMM20 (Rabbit, 1:150, Santa Cruz, sc-11415) diluted in 1XPBS, 2%BSA. Slides were washed three times 10 minutes with 1XPBS, 2%BSA then incubated 1 hour at RT with anti-Rabbit-AlexaFluor568 secondary antibody (Goat, 1:1000, ThermoFisher Scientific). Cells were washed four times 10 minutes with 1XPBS then mounted with Vectashield mouting media containing DAPI (Vector laboratories H-1200). […]

[5] = Homo sapiens, KP-4, 72 h, 72 hours, read-out: IC50

SMILES	Change of internal vesicular pH (HPTS) [1]	Membrane depolarization (Safranin-O fluorescence) [2]	IC50 (KP4 cells [3]; [5]) [µM]	Decrease of the number of AH375 spheres (AH375 cells; 1 mM) [%]	Effect on mitochondrial morphology (KP4 cells [4])	IC50 fold lower than phenformin (KP4 cells [3]; KP4 and Panc1 cells)	IC50 (KP4 cells [3]; 3 days treatment, crystal violet retention assay, read-out: IC50 KP4) [µM]	Fold more active than metformin (KP4 cells [3]; conclusion) [fold]	Decrease of the number of AH375 spheres (AH375 cells; 5 µM) [%]
CN(C)C(=N)NC(=N)N [metformin, 1,1-dimethylbiguanide, reference compound]	no membrane activity	did not show this activity	~5000	50	loss of the filamentous mitochondrial network				
N=C(N)NC(=N)NCc1ccc(C#Cc2ccccc2)cc1 [1b, 4-(phenylethynyl)benzylbiguanide]	basification of the internal vesicular pH	depolarization of the membrane	6.1		punctuated pattern typical of fragmented mitochondria	8–12 fold	6.13	1000	75
